Here are results for six molecules from publication PMC7011974, “Benzimidazole derivatives endowed with potent antileishmanial activity” (Journal of Enzyme Inhibition and Medicinal Chemistry, 2017).

Several values for one entry are separate records, joined by “and”; a condition that tells them apart may be missing. Identical values can stand only once. Like-named read-outs stand apart in the source and are kept apart here.

Series [1] relates to serum cholesterol concentration. Details: method as in ref 21 = [21]; 21 (a) Sparatore F , Boido V , Fanelli F. Dialkylaminoalkylbenzimi-dazoles of pharmacological interest . Farmaco Sci 1968; 23 : 344 – 59 . (b) Paglietti G , Sparatore F. Dialkylaminoalkyl-benzimidazo. Particulars: hypercholesterolemic mice, 50 mg/kg p.os; cited from earlier work.
The test system of series [2] is human microvascular endothelial cell line (HMEC-1). Nature of the series: Cytotoxicity on HMEC-1 cells (MTT). Format: cell-based. The following applies: for IC50: Homo sapiens, cytotoxicity, HMEC-1 cells, MTT.
In series [3] the test system is L. infantum promastigotes. Description: Antileishmanial activity on L. infantum promastigotes (MTT). Particulars: for IC50: Leishmania infantum. Format: cell-based, Leishmania infantum.
Series [4] concerns L. tropica promastigotes. Description: Antileishmanial activity on L. tropica promastigotes (MTT). The following applies: for IC50: Leishmania tropica. It counts as cell-based, Leishmania tropica.
Series [5] concerns L. major (promastigotes). Details: method as in PMID 20430484, PMID 15183913, PMID 18486471. Particulars: Figure 3; cited from earlier work.
Series [6] deals with renal cancer cell line UO31. Details: method as in ref 25b = [25]; 25 (a) Novelli F , Tasso B , Sparatore F. Synthesis and biological investigations of 2-(tetrahydropyran-2'-yl) and 2-(tetrahydrofuran-2'-yl)benzimidazoles . Farmaco 1997; 52 : 499 – 507 . (b) Tonelli. The following applies: ref 25b; cited from earlier work.
Series [7] has as its system intramacrophagic amastigote stage of L. infantum. Nature of the series: In vitro intracellular amastigote susceptibility assay in THP-1 macrophages. Format: cell-based, Leishmania infantum. Here is the method: (b) In vitro intracellular amastigote susceptibility assays. […] Cell monolayers were then washed and incubated with compounds for 72 h. Slides were fixed with methanol and stained with Giemsa. The percentage of infected macrophages in treated and non-treated cells was determined by light microscopy.

Series [8] is described as follows: in vitro. The following applies: monkey.
The subject of series [9] is Coxsackie virus B5 (CVB-5). Details: method as in ref 24c = [24]; 24 (a) Tonelli M , Paglietti G , Boido V , et al Antiviral activity of benzimidazole derivatives. I. Antiviral activity of 1-substituted-2-[(benzotriazol-1/2-yl)methyl]benzimidazoles . Chem Biodivers. The following applies: ref 24c; cited from earlier work.
The test system of series [10] is respiratory syncytial virus (RSV). Details: method as in ref 24c = [24]; 24 (a) Tonelli M , Paglietti G , Boido V , et al Antiviral activity of benzimidazole derivatives. I. Antiviral activity of 1-substituted-2-[(benzotriazol-1/2-yl)methyl]benzimidazoles . Chem Biodivers. The following applies: ref 24c; cited from earlier work.
Series [11] deals with 24 human cancer cell lines. Details: method as in ref 25b = [25]; 25 (a) Novelli F , Tasso B , Sparatore F. Synthesis and biological investigations of 2-(tetrahydropyran-2'-yl) and 2-(tetrahydrofuran-2'-yl)benzimidazoles . Farmaco 1997; 52 : 499 – 507 . (b) Tonelli. Particulars: ref 25b; read-out: GI50 against 24 human cancer cell lines; cited from earlier work.
Series [12] deals with monkey kidney (Vero76) cells. Description: Cytotoxicity on Vero-76 cells (crystal violet).
For series [13], the system named is promastigote stage of L. infantum. The following applies: read-out: IC50 of miltefosine versus promastigote stage of L. infantum, literature, cited from earlier work.
The subject of series [14] is L. donovani (promastigotes). Details: method as in PMID 20430484, PMID 15183913, PMID 18486471. Particulars: Figure 3; cited from earlier work.
Series [15] concerns L. mexicana (amastigotes). Details: method as in PMID 20430484, PMID 15183913, PMID 18486471. Particulars: Figure 3; cited from earlier work.
Series [16] has as its system L. mexicana (promastigotes). More on the design: method as in PMID 20430484, PMID 15183913, PMID 18486471. The following applies: Figure 3; cited from earlier work.
The mark [17] stands for this setting: promastigotes, MTT, 72 h, read-out: IC50 (µM) L. infantum.
[18] abbreviates: percent of amphotericin B potency, calculated for each experiment.
[19] abbreviates: 72 h, promastigotes, MTT, 72 h, starred values mean of two experiments, read-out: IC50 (µM) L. tropica.
Where [20] appears, read: fold potency versus miltefosine.

`CCN(CC)CCCn1c(Cc2ccc(Cl)cc2)nc2cc(C(F)(F)F)ccc21` [2-(4-chlorobenzyl)-1-(3-diethylaminopropyl)-5-trifluoromethylbenzimidazole]: the “Reduction of serum cholesterol concentration” value in series [1] was above 15%.

For the molecule `C[C@@H]1[C@H](O)[C@@H](C)/C=C/C=C/C=C/C=C/C=C/C=C/C=C/[C@H](O[C@@H]2O[C@H](C)[C@@H](O)[C@H](N)[C@@H]2O)C[C@@H]2O[C@](O)(C[C@@H](O)C[C@@H](O)[C@H](O)CC[C@@H](O)C[C@@H](O)CC(=O)O[C@H]1C)C[C@H](O)[C@H]2C(=O)O` [Amph. B, amphotericin B, reference compound], the IC50 (as a rule, the concentration that gives 50% inhibition) in series [2] was 25.7 ± 1.9 µM; in series [3] (setting [17]), 0.135 ± 0.03 µM; in series [3] (range of values across experiments, read-out: IC50 range over many different experiments, L. infantum), 0.094 to 0.209 µM; in [4] (setting [19]), 0.113 ± 0.03 µM; in series [4] (range of values across experiments, read-out: IC50 range over many different experiments, L. tropica), 0.082 to 0.177 µM; in series [5], 0.61 µM. The “SI L. infantum (IC50 HMEC-1/IC50 L. infantum)” value in series [2] (selectivity index, HMEC-1) amounted to 190.4. In addition, the “SI L. tropica (IC50 HMEC-1/IC50 L. tropica)” value in [2] (selectivity index, HMEC-1) is given as 227.4. The “IC50 amph. B ×100/IC50 compd., L. infantum” value in series [3] (setting [18]) was 100. Further, in [4] (setting [18]), the “IC50 amph. B ×100/IC50 compd., L. tropica” value is recorded as 100.

With `FC(F)(F)c1ccc2c(c1)nc(Cc1ccc(Cl)cc1)n2C[C@@H]1CCCN2CCCC[C@H]12` [Compound 28, 2-(4-chlorobenzyl)-1-lupinyl-5-trifluoromethylbenzimidazole], the GI50 (as a rule, the concentration giving 50% growth inhibition) was 0.019 µM in series [6] and below 5 µM in series [11]. Besides, the 50% inhibitory concentration (IC50) in series [2] was 16.9 µM; in series [7] (Leishmania infantum, THP-1 macrophages, 72 h, read-out: IC50 against intramacrophagic amastigote stage of L. infantum) it was above 2 µM; in series [3] (setting [17]) it was 4.76 ± 1.6 µM; in [8], above 100 µM; in series [4] (setting [19]) it was 3.7 ± 1.19 µM. In series [7] (2 μM concentration), the “Reduction of the amastigote infection of THP-1 cells” value was 33.2%. In series [3] (setting [18]), the “IC50 amph. B ×100/IC50 compd., L. infantum” value was 4.4. The concentration for a half-maximal effect (EC50) (in general, the concentration giving half of the maximal effect) in series [9] is 13 µM; in series [10] it was 15 µM. The “IC50 amph. B ×100/IC50 compd., L. tropica” value in [4] (setting [18]) is recorded as 4.8.

As for `COc1ccc(Cc2nc3cc([N+](=O)[O-])ccc3n2C[C@@H]2CCCN3CCCC[C@H]23)cc1` [Compound 34], in [3], the “IC50 amph. B ×100/IC50 compd., L. infantum” value amounted to 1.77 and the “Ratio IC50 miltef./IC50 compd., L. infantum” value came to 4.7. Also, the concentration for half-maximal inhibition (IC50) in series [3] (72 h, read-out: IC50 (µM) L. infantum) is 6.68 ± 1.74 µM. In series [8], this molecule registered an IC50 of 49 µM. For the same molecule, in series [4], the “IC50 amph. B ×100/IC50 compd., L. tropica” value is recorded as 2.99 and the “Ratio IC50 miltef./IC50 compd., L. tropica” value is 12.6. In addition, the IC50 in [4] (72 h, read-out: IC50 (µM) L. tropica) worked out at 3.44 ± 1.43 µM. Also, in series [12], the “SI L. infantum (IC50 Vero76/IC50 L. infantum)” value was 7.33 and the “SI L. tropica (IC50 Vero76/IC50 L. tropica)” value came out at 14.24.

Regarding `CCCCCCCCCCCCCCCCOP(=O)([O-])OCC[N+](C)(C)C` [Miltefosine, miltefosine, reference compound], the concentration for half-maximal inhibition (IC50) was 99.8 µM in [2]; 31.3 ± 10.4 µM in [3] (setting [17]); 43 µM in series [4] (setting [19]); 16.7 µM in series [13] (ref 6c); 15 µM in series [13] (ref 11a); 19.6 µM in series [13] (ref 13b). Moreover, in series [2] (selectivity index, HMEC-1), the “SI L. infantum (IC50 HMEC-1/IC50 L. infantum)” value is recorded as 3.2. The “Ratio IC50 miltef./IC50 compd., L. infantum” value in series [3] (setting [20]) was determined as 1.0. For the same molecule, in series [3] (setting [18]), the “IC50 amph. B ×100/IC50 compd., L. infantum” value was 0.27. Further, the “Ratio IC50 miltef./IC50 compd., L. tropica” value in series [4] (setting [20]) was 1.0. In addition, the “IC50 amph. B ×100/IC50 compd., L. tropica” value in [4] (setting [18]) is listed as 0.26.

On to `N=C(N)c1ccc(OCCCCCOc2ccc(C(=N)N)cc2)cc1` [pentamidine], for which the IC50 in [14] is 2.2 µM and 2.87 µM; in [15], 9.57 µM; in [16], 2.42 µM.
